Experimental findings from US12209086B2, “FGFR3 inhibitor compounds” (ELI LILLY AND COMPANY, priority 2021, dated 2025) are described below.

The structures appear in SMILES notation.

T1 sequence (P22607 23-806): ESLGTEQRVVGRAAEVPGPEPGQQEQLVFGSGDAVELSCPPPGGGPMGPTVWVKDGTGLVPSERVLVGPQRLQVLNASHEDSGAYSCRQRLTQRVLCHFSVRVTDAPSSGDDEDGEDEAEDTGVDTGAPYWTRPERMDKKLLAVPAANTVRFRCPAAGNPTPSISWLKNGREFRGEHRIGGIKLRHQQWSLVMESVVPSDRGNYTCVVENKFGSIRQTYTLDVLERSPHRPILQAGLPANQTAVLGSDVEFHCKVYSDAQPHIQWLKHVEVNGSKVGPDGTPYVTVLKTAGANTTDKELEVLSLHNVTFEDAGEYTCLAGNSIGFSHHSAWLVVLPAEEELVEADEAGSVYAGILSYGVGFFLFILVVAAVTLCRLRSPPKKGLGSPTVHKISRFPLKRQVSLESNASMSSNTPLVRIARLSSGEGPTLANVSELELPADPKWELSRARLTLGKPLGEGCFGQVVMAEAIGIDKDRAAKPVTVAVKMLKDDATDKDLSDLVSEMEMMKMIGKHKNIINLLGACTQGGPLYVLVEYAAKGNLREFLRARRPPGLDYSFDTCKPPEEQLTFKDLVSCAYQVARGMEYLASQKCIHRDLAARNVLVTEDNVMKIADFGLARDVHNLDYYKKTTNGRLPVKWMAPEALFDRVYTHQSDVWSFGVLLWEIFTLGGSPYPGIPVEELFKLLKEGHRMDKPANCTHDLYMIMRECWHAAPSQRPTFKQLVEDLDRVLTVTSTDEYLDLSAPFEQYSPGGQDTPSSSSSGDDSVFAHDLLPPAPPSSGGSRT

This assay addresses T1, FGFR3 protein (Homo sapiens, UniProt P22607).
T1 construct: purchased Reaction Biology 1068
Description: FGFR3 enzyme assay (KinEASE-TK HTRF kinase assay). It is filed as biochemical. The following applies: 0.25 nM enzyme, ATP at Km, 15 min pre-incubation on ice, 30 min at 30° C. How it is done: FGFR3 and FGFR1 Enzyme Assay
Enzyme activity was monitored using the KinEASE™-TK Assay Kit (Cisflio, Cat. No. 62TK0PEC) according to the manufacturer's instructions. All assays were performed at the respective KmATP for each kinase in KinEASE™ Kinase Buffer.
Titration of compounds were performed in a half-log manner in 100% dimethyl sulfoxide (DMSO) starting at 1 uM. Prior to the initiation of the reaction by adenosine triphosphate (ATP), FGFR1 protein and compounds were pre-incubated for 15 minutes at room temperature, and FGFR3 protein and compounds were pre-incubated on ice for 15 minutes. Reactions proceeded for 30 min at 30° C. Plates were quenched by the addition of the Anti-TK cryptate antibody/Streptavidin-XL665 mixture.
Ratios were converted to a percent of control (POC) using a ratiometric emission factor. One hundred POC was determined using no test compound, and 0 POC was determined in the presence of 1 uM of an appropriate control inhibitor.
For `Cc1c(-c2cc(O[C@H](C)c3ccnn3C)c3c(C#N)cnn3c2)cnn1C1CCN(C#N)CC1` [Example 189, 4-(4-[3-Cyano-4-[(1R)-1-(2-methylpyrazol-3-yl)ethoxy]pyrazolo [1,5-a]pyridin-6-yl]-5-methylpyrazol-1-yl)piperidine-1-carbonitrile], the concentration for half-maximal inhibition (IC50) was less than 0.05 µM.

In turn, `Cc1c(-c2cc(O[C@H](C)c3ccccn3)c3c(C#N)cnn3c2)nnn1C1CCN(C#N)CC1` [Example 169, 4-(4-[3-Cyano-4-[(1R)-1-(pyridin-2-yl)ethoxy]pyrazolo[1,5-a]pyridin-6-yl]-5-methyl-1,2,3-triazol-1-yl)piperidine-1-carbonitrile] gave an IC50 of less than 0.05 µM.

Turning to `COc1cc(-c2cnn([C@H]3C[C@H]4CC[C@@H](C3)N4C#N)c2C)cn2ncc(C#N)c12` [Example 183, 6-(1-((1R,3r,5S)-8-Cyano-8-azabicyclo[3.2.1]octan-3-yl)-5-methyl-1H-pyrazol-4-yl)-4-methoxypyrazolo[1,5-a]pyridine-3-carbonitrile], the IC50 is less than 0.05 µM.

Consider `Cc1c(-c2cc(OC(C)c3cncc4cc(F)ccc34)c3c(C#N)cnn3c2)nnn1C1CCN(C#N)CC1` (centres unmarked) [Example 21, 6-[1-(1-Cyano-4-piperidyl)-5-methyl-triazol-4-yl]-4-[1-(7-fluoro-4-isoquinolyl)ethoxy] pyrazolo[1,5-a] pyridine-3-carbonitrile], for which the IC50 is less than 0.05 µM.

The molecule `Cc1c(-c2cc(OC(CO)c3ccc(F)cn3)c3c(C#N)cnn3c2)cnn1C1CCN(C#N)CC1` (single isomer, unassigned; isomer 1) [Example 43, 6-[1-(1-Cyano-4-piperidyl)-5-methyl-pyrazol-4-yl]-4-[1-(5-fluoro-2-pyridyl)-2-hydroxy-ethoxy]pyrazolo[1,5-a]pyridine-3-carbonitrile, Isomer 1] had an IC50 of less than 0.05 µM.

The molecule `Cc1c(-c2cc(OC(CO)c3ccc(F)cn3)c3c(Cl)cnn3c2)nnn1[C@H]1C[C@@H](N2CC3COCC(C2)N3C#N)C1` (single isomer, unassigned) [Example 280] returned an IC50 of less than 0.05 µM.

`COc1cc(-c2cnn(C3CN([C@@H]4CCN(C#N)C4)C3)c2C)cn2ncc(C#N)c12` [Example 222, (3R)-3-[3-(4-[3-Cyano-4-methoxypyrazolo[1,5-a]pyridin-6-yl]-5-methylpyrazol-1-yl)azetidin-1-yl]pyrrolidine-1-carbonitrile] showed an IC50 of less than 0.05 µM.

Consider `Cc1c(-c2cc(OC(CO)c3ccc(F)cn3)n3c(C#N)cnc3c2)nnn1C1CCN(C#N)CC1` (single isomer, unassigned; isomer 1) [Example 63, 7-[1-(1-Cyano-4-piperidyl)-5-methyl-triazol-4-yl]-5-[1-(5-fluoro-2-pyridyl)-2-hydroxy-ethoxy]imidazo[1,2-a]pyridine-3-carbonitrile, Isomer 1], for which the concentration for half-maximal inhibition (IC50) was less than 0.05 µM.

In turn, `Cc1c(-c2cc(O[C@H](C)C3CCOCC3)c3c(C#N)cnn3c2)cnn1C1CCN(C#N)CC1` [Example 245, 4-(4-[3-Cyano-4-[(1R)-1-(oxan-4-yl)ethoxy]pyrazolo [1,5-a]pyridin-6-yl]-5-methylpyrazol-1-yl)piperidine-1-carbonitrile] gave an IC50 of less than 0.05 µM.

Molecule `Cc1c(-c2cc(O[C@H](C)c3ccn(C)n3)c3c(C#N)cnn3c2)nnn1C1CCN(C#N)CC1` [Example 292, 6-[1-(1-Cyano-4-piperidyl)-5-methyl-triazol-4-yl]-4-[(1R)-1-(1-methylpyrazol-3-yl)ethoxy]pyrazolo [1,5-a]pyridine-3-carbonitrile] returned an IC50 of less than 0.05 µM.

`Cc1c(-c2cc(OCC(O)c3ccc(F)cn3)c3c(Cl)cnn3c2)nnn1C1CCN(C#N)CC1` (single isomer, unassigned) [Example 155, 4-[4-[3-Chloro-4-[2-(5-fluoro-2-pyridyl)-2-hydroxy-ethoxy]pyrazolo[1,5-a]pyridin-6-yl]-5-methyl-triazol-1-yl]piperidine-1-carbonitrile] displayed an IC50 of less than 0.05 µM.

Take `Cc1c(-c2cc(O[C@H](C)c3nncn3CC(F)(F)F)n3c(C#N)cnc3c2)nnn1C1CCN(C#N)CC1` [Example 274, 7-[1-(1-Cyano-4-piperidyl)-5-methyl-triazol-4-yl]-5-[(1R)-1-[4-(2,2,2-trifluoroethyl)-1,2,4-triazol-3-yl]ethoxy]imidazo [1,2-a]pyridine-3-carbonitrile]: the IC50 was less than 0.1 µM.

As to `Cc1c(-c2cc(OC(c3ccc(F)cn3)C(F)(F)F)n3c(C#N)cnc3c2)nnn1C1CCN(C#N)CC1` (single isomer, unassigned; isomer 1) [Example 48, 7-[1-(1-Cyano-4-piperidyl)-5-methyl-triazol-4-yl]-5-[2,2,2-trifluoro-1-(5-fluoro-2-pyridyl)ethoxy]imidazo[1,2-a]pyridine-3-carbonitrile, Isomer 1], the IC50 was less than 0.05 µM.

As to `Cc1c(-c2cc(OC(C)c3cncc(C(F)(F)F)c3)n3c(C#N)cnc3c2)nnn1C1CCN(C#N)CC1` (single isomer, unassigned; isomer 1) [Example 41, 7-[1-(1-Cyano-4-piperidyl)-5-methyl-triazol-4-yl]-5-[1-[5-(trifluoromethyl)-3-pyridyl]ethoxy]imidazo[1,2-a]pyridine-3-carbonitrile, Isomer 1], the IC50 was less than 0.05 µM.

With `Cc1c(-c2cc(O[C@H](C)c3ccccn3)n3c(C#N)cnc3c2)nnn1C1CCCN(C#N)CC1` (stereo partly drawn) [Example 257, 7-[1-(1-Cyanoazepan-4-yl)-5-methyl-triazol-4-yl]-5-[(1R)-1-(2-pyridyl)ethoxy] imidazo[1,2-a]pyridine-3-carbonitrile], the IC50 is less than 0.05 µM.

Take `COCC(Oc1cc(-c2nnn(C3CCN(C#N)CC3)c2C)cn2ncc(C#N)c12)c1ccc(F)cn1` (single isomer, unassigned; isomer 1) [Example 53, 6-[1-(1-Cyano-4-piperidyl)-5-methyl-triazol-4-yl]-4-[1-(5-fluoro-2-pyridyl)-2-methoxy-ethoxy]pyrazolo[1,5-a]pyridine-3-carbonitrile, Isomer 1]: the IC50 was less than 0.05 µM.

Take `Cc1c(-c2cc(O[C@H](C)c3ccc(F)cn3)n3c(C#N)cnc3c2)cnn1C1CCN(C#N)CC1` [Example 209]: the half-maximal inhibitory concentration (IC50) is less than 0.05 µM.

For `Cc1c(-c2cc(OCC(C)(O)c3ccc(F)cn3)c3c(F)cnn3c2)nnn1C1CCN(C#N)CC1` (single isomer, unassigned) [Example 157, 4-[4-[3-Fluoro-4-[2-(5-fluoro-2-pyridyl)-2-hydroxy-propoxy]pyrazolo[1,5-a]pyridin-6-yl]-5-methyl-triazol-1-yl]piperidine-1-carbonitrile], the IC50 was less than 0.05 µM.

In turn, `Cc1c(-c2cc(O[C@H](C)c3ccccn3)n3c(Cl)cnc3c2)nnn1C1CN(C2CCN(C#N)CC2)C1` [Example 233, 4-[3-[4-[3-Chloro-5-[(1R)-1-(2-pyridyl)ethoxy]imidazo[1,2-a]pyridin-7-yl]-5-methyl-triazol-1-yl]azetidin-1-yl]piperidine-1-carbonitrile] gave a 50% inhibitory concentration (IC50) of less than 0.1 µM.

As to `COCC(Oc1cc(-c2nnn(C3CCN(C#N)CC3)c2C)cn2ncc(C#N)c12)c1cncc(C(F)(F)F)c1` (single isomer, unassigned; isomer 1) [Example 61, 6-[1-(1-cyano-4-piperidyl)-5-methyl-triazol-4-yl]-4-[2-methoxy-1-[5-(trifluoromethyl)-3-pyridyl]ethoxy]pyrazolo [1,5-a]pyridine-3-carbonitrile, Isomer 1], the IC50 is less than 0.05 µM.

Regarding `Cc1nc([C@@H](C)Oc2cc(-c3nnn(C4CCN(C#N)CC4)c3C)cn3ncc(C#N)c23)cs1` [Example 291, 6-[1-(1-Cyano-4-piperidyl)-5-methyl-triazol-4-yl]-4-[(1R)-1-(2-methylthiazol-4-yl)ethoxy]pyrazolo [1,5-a]pyridine-3-carbonitrile], the half-maximal inhibitory concentration (IC50) is less than 0.05 µM.

For the molecule `COc1cc(-c2cnn(C3CCN(C4CN(C#N)C4)CC3)c2C)cn2ncc(C#N)c12` [Example 228, 3-[4-(4-[3-Cyano-4-methoxypyrazolo[1,5-a]pyridin-6-yl]-5-methylpyrazol-1-yl)piperidin-1-yl]azetidine-1-carbonitrile], the IC50 is less than 0.05 µM.

The molecule `Cc1c(-c2cc(O[C@H](C)c3ccccn3)n3c(C#N)cnc3c2)cnn1C1CN(C2CC3CCC2N3C#N)C1` (stereo partly drawn) [Example 226, 7-[1-[1-(7-Cyano-7-azabicyclo[2.2.1]heptan-2-yl)azetidin-3-yl]-5-methyl-pyrazol-4-yl]-5-[(1R)-1-(2-pyridyl)ethoxy]imidazo [1,2-a]pyridine-3-carbonitrile] displayed an IC50 of less than 0.05 µM.

As for `COCC(Oc1cc(-c2nnn(C3CCN(C#N)CC3)c2C)cc2ncc(C#N)n12)c1ccc(F)cn1` (single isomer, unassigned; isomer 1) [Example 49, 7-[1-(1-Cyano-4-piperidyl)-5-methyl-triazol-4-yl]-5-[1-(5-fluoro-2-pyridyl)-2-methoxy-ethoxy]imidazo[1,2-a]pyridine-3-carbonitrile, Isomer 1], the IC50 was less than 0.05 µM.

`Cc1c(-c2cc(OCC(O)c3ccc(F)cn3)c3c(Cl)cnn3c2)nnn1C1CCN(C#N)CC1` (single isomer, unassigned) [Example 154, 4-[4-[3-Chloro-4-[2-(5-fluoro-2-pyridyl)-2-hydroxy-ethoxy]pyrazolo[1,5-a]pyridin-6-yl]-5-methyl-triazol-1-yl]piperidine-1-carbonitrile] had an IC50 of less than 0.05 µM.

`COc1cc(-c2cnn(C3CN(C4CC5CC(C4)N(C#N)C5)C3)c2C)cn2ncc(C#N)c12` (centres unmarked) [Example 225, 6-(1-(1-(6-cyano-6-azabicyclo[3.2.1]octan-3-yl)azetidin-3-yl)-5-methyl-1H-pyrazol-4-yl)-4-methoxypyrazolo[1,5-a]pyridine-3-carbonitrile] displayed a concentration for half-maximal inhibition (IC50) of less than 0.1 µM.
